Measurements from PMC8041284, “Tunable Methacrylamides for Covalent Ligand Directed Release Chemistry” (Journal of the American Chemical Society, 2021).

Assays:
[1] = target: T1, EGFR (Homo sapiens, UniProt P00533); assay: In vitro kinase activity assay (Nanosyn); format: biochemical; settings: EGFR kinase activity assay, 0.75 nM EGFR, 5 μM ATP
Target sequence in this assay (P00533 25-1210): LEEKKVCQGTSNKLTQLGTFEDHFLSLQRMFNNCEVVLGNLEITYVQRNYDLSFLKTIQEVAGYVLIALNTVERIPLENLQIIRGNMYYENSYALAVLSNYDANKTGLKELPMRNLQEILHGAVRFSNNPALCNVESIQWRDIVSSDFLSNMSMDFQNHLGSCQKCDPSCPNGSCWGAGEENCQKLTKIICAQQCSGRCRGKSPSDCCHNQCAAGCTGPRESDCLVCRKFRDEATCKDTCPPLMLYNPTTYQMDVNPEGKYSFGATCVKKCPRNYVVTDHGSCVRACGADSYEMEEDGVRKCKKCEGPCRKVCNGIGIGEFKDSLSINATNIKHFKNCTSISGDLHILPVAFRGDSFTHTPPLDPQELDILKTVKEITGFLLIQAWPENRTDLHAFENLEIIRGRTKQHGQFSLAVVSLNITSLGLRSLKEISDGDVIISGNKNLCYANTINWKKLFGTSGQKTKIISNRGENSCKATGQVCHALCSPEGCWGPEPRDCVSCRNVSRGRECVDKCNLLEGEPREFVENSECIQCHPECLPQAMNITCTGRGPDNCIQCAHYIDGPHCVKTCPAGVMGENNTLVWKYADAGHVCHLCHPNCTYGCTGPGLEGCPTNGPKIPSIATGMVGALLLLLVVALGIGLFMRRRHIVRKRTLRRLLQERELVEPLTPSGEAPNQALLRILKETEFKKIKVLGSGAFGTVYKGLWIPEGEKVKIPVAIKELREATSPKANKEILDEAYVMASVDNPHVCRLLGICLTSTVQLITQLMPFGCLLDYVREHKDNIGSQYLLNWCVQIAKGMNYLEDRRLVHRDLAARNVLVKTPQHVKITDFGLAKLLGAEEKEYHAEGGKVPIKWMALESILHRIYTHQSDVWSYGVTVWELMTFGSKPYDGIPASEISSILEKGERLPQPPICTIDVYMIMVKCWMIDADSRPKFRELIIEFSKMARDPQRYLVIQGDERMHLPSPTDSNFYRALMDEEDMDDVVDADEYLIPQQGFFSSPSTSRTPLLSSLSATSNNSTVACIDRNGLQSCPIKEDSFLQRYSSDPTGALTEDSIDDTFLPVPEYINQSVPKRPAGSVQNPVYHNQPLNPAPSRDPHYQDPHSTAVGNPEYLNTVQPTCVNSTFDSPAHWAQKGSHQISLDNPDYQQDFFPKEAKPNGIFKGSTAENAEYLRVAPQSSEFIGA
Experimental: Kinase reactions are assembled in 384-well plates (Greiner) in a total volume of 20 μL. Test compounds were diluted in DMSO to a final concentration, while the final concentration of DMSO in all assays was kept at 1%. The compounds were incubated with the kinases for 2 h. […] The reaction was initiated by 2-fold dilution into a solution containing 5 μM ATP and 1 μM substrate in the kinase buffer
in 100 mM HEPES, pH 7.5, 0.1% BSA, 0.01% Triton X-100, 1 mM DTT, 10 mM MnCl2.
initiated by 2-fold dilution into a solution containing 5 μM ATP and 1 μM substrate in the kinase buffer.

[2] = target: T1, EGFR; assay: Fluorescence intensity measurement of CoLDR turn-on probe; format: binding; design: EGFR kinase domain was a generous gift from Prof; Michael Eck; gift from Prof; settings: 2 μM probe, 2 μM protein
Experimental: (§1) A 2 μM concentration of BTK, EGFR, or K-RAS^G12C was added to 2 μM 3k, 4b, or 5a, respectively. […] Each condition was done in triplicates in 20 mM Tris pH 8.0 and 50 mM NaCl for BTK and K-RAS^G12C and in 50 mM Tris pH 8.0 and 100 mM NaCl for EGFR at 32 °C. Fluorescent measurements were taken every 2 min for 2 h for BTK and EGFR and every 10 min for 15 h for K-RAS^G12C. At the end of the measurements, samples were injected directly into the LC/MS for labeling quantification. K-Ras^G12C was expressed and purified as previously described,[69] EGFR kinase domain was a generous gift from Prof. Michael Eck.
Target sequence in this assay (P00533 712-979 limits assumed): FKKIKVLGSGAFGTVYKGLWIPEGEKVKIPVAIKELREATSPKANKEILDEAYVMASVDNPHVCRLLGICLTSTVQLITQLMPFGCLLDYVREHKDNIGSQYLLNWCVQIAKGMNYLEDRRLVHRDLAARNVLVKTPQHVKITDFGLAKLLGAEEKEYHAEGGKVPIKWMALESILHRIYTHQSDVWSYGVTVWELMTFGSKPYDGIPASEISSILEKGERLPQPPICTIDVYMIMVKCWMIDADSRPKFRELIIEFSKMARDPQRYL

[3] = target: K-Ras^G12C (Homo sapiens, UniProt P01116, G12C); assay: as above; format: binding; settings: 2 μM probe, 2 μM protein
Experimental: as §1

Compound	IC50 [1]	released coumarin fluorescence with EGFR [2]	released coumarin fluorescence with K-RAS^G12C [3]
C=C(COc1ccc2ccc(=O)oc2c1)C(=O)Nc1cc2c(Nc3ccc(F)c(Cl)c3)ncnc2cc1OC [4b]	3.3 nM	significant increase in fluorescence intensity	
C=C(COc1ccc2ccc(=O)oc2c1)C(=O)N1CCN(c2nc(=O)n(-c3c(C)ccnc3C(C)C)c3nc(-c4c(O)cccc4F)c(F)cc23)[C@@H](C)C1 [5a]			significant increase in fluorescence intensity
